Test results published in patent publication US10226449B2, “Heterocyclic modulators of lipid synthesis and combinations thereof” (priority 2013, dated 2019).
Read-outs that look alike come from different tables or passages of the source.

Legend:
[1] = mouse, in vivo
Method: (§1) The day of tumor cell inoculation is denoted as day 0. Drug treatment was initiated when the mean tumor size reached 149 mm^3 (day 15). […] Mice were assigned into treatment groups using a randomized block design based upon their tumor volumes. […] Tumor sizes were measured twice weekly in two dimensions using a caliper, and the volumes were expressed in mm^3 using the formula: V=0.5 a×b2 where a and b were the long and short diameters of the tumor, respectively. The study was terminated 6 hours post the 18th Qd dose on day 32 after tumor inoculation. Tumor growth inhibition (TGI) was calculated as the percentage of tumor growth, relative to tumor size at the start of treatment, in drug-treated groups compared to vehicle-treated groups. The Mann-Whitney U test was used to assess statistical significance of the mean tumor size between drug and vehicle-treated groups.

[2] = Tolerability in the single agent PANC-1 xenograft study; details: 30/20 mg/kg Q5d; 18-day study; PANC-1 xenograft mice, 10 per group
Method: as §1

HCV1b replicon = HCV1b replicon antiviral assay (luciferase reporter); format: cell-based; details: Hepatitis C virus; HCV genotype 1b replicon; read-out: HCV GT1b EC50
Method: The antiviral activities of the compounds were assessed using the HCV1b replicon system. […] HCV RNA replicon levels were assessed using the Bright-Glo™ Luciferase Assay System (Promega) to measure replicon-derived Luc activity.

[3] = test system: COLO-205 xenograft tumors; test: COLO-205 colon xenograft tumor growth inhibition with irinotecan
Method: (§2) The day of tumor cell inoculation is denoted as day 0. After inoculation, the animals were checked daily for morbidity and mortality. At the time of routine monitoring, the animals were checked for any effects of tumor growth and treatments on normal behavior such as mobility, visual estimation of food and water consumption, body weight gain/loss (body weights were measured twice weekly), eye/hair matting and any other abnormal signs. […] Mice were assigned into treatment groups using a randomized block design based upon their tumor volumes. […] Tumor sizes were measured twice weekly in two dimensions using a caliper, and the volumes were expressed in mm^3 using the formula: V=0.5*(a*b^2) where a and b were the long and short diameters of the tumor, respectively. The study was terminated 6 hours post the last dose 17-28 days after treatment initiation. Tumor growth inhibition (TGI) was calculated as the percentage of tumor growth, relative to tumor size at the start of treatment, in drug-treated groups compared to vehicle-treated groups. The Mann-Whitney U test was used to assess statistical significance of the mean tumor size between drug and vehicle-treated groups

CALU-6 xenograft tumors = test: CALU-6 lung xenograft tumor growth inhibition with paclitaxel; format: in vivo, BALB/c-nude mice; details: for TGI vs. Vehicle: day 21 post treatment start
Method: as §2
The study was terminated 21 days after initiation of treatment.

[4] = mouse, in vivo; remark: listed apart in the source
Method: as §2

PANC-1 xenograft tumors = test: PANC-1 pancreatic xenograft tumor growth inhibition with gemcitabine; format: in vivo, BALB/c-nude mice
Method: as §2

OVCAR-8 xenograft tumors = test: OVCAR-8 ovarian xenograft tumor growth inhibition with paclitaxel; format: in vivo, BALB/c-nude mice; details: day 21 post treatment start
Method: as §2
The study was terminated 28 days after initiation of treatment.

[5] = mouse, in vivo; remark: listed apart in the source
Method: as §2

[6] = mouse, in vivo; remark: listed apart in the source
Method: as §2

[7] = irinotecan 10 mg/kg ip Q4d, single agent

Question: Which “tolerability in PANC-1 xenograft tumor-bearing mice” value [1] does the source give for C=C1C(=O)O[C@@H](CCCCCCCC)[C@@H]1C(=O)O (relative stereo) [Compound C75, trans-4-methylene-2-octyl-5-oxotetrahydrofuran-3-carboxylic acid] here?
Answer: drug-induced weight loss and toxicity

Question: What about the “mice died from drug-related toxicity” value [2] of the same molecule?
Answer: Six of the ten mice in the C75 treatment group died

Question: For CCN(CC)c1cc(C)c(C(=O)N2CCC(c3ccc(C#N)cc3)CC2)cc1-c1nnc(C)[nH]1 [Compound 129, 4-(1-(4-(diethylamino)-2-methyl-5-(5-methyl-4H-1,2,4-triazol-3-yl)benzoyl)piperidin-4-yl)benzonitrile], which EC50 (HCV1b replicon) is on record?
Answer: 2150 nM

Question: Which EC50 (HCV1b replicon) does the source give for Cc1cc(C)c(-c2[nH]c(C3CCOCC3)nc2C)cc1C(=O)N1CC(F)(c2ccc(C#N)cc2)C1 [Compound 167, 4-(1-(2,4-Dimethyl-5-(4-methyl-2-(tetrahydro-2H-pyran-4-yl)-1H-imidazol-5-yl)benzoyl)-3-fluoroazetidin-3-yl)benzonitrile] here?
Answer: 25 nM

Question: Which results are given for Cc1cc(C)c(-c2[nH]nc(C)c2C)cc1C(=O)N1CC(c2ccc(C#N)cc2)C1 [Compound 242, 4-(1-(5-(3,4-Dimethyl-1H-pyrazol-5-yl)-2,4-dimethylbenzoyl)azetidin-3-yl)benzonitrile]?
Answer: TGI vs. Vehicle ([3]; Compound 242 30 mg/kg po Qd for 20 days): 6%; TGI vs. Vehicle (CALU-6 xenograft tumors; Compound 242 60 mg/kg po Qd): 14%; TGI vs. Vehicle (CALU-6 xenograft tumors; Compound 242 100 mg/kg po Qd): 0%; tumor growth inhibition, range over dose groups (CALU-6 xenograft tumors; Compound 242 single agent at 30, 60, or 100 mg/kg once daily for 21 days): 0-19%; Body Weight Change (mouse, in vivo, po, 100 mg/kg): −12.0%; tolerability in CALU-6 xenograft tumor-bearing mice [4]: well tolerated as a single or combination agent; TGI vs. Vehicle (PANC-1 xenograft tumors; Compound 242 30 mg/kg po Qd for 18 days): 9%; TGI vs. Vehicle (OVCAR-8 xenograft tumors; Compound 242 30 mg/kg po Qd): 46%; TGI vs. Vehicle (OVCAR-8 xenograft tumors; Compound 242 100 mg/kg po Qd): 74%; tolerability in PANC-1 xenograft tumor-bearing mice [5]: well tolerated as a single or combination agent; tolerability in OVCAR-8 xenograft tumor-bearing mice [6]: well tolerated as a single or combination agent

Question: Which EC50 (HCV1b replicon) does the source give for Cc1ccc(C(=O)N2CCC(c3ccc(C#N)cc3)CC2)cc1-c1[nH]nc(Cl)c1C [Compound 253, 4-(1-(3-(3-Chloro-4-methyl-1H-pyrazol-5-yl)-4-methylbenzoyl)piperidin-4-yl)benzonitrile] here?
Answer: 220 nM

Question: Which “TGI vs. Vehicle” value (PANC-1 xenograft tumors; gemcitabine 10 mg/kg ip, single agent) does the source give for Nc1ccn([C@@H]2O[C@H](CO)[C@@H](O)C2(F)F)c(=O)n1 [Gemcitabine, gemcitabine, reference compound] here?
Answer: 31%

Question: Which “TGI vs. Vehicle” value [3, 7] does the source give for CCc1c2c(nc3ccc(OC(=O)N4CCC(N5CCCCC5)CC4)cc13)-c1cc3c(c(=O)n1C2)COC(=O)[C@]3(O)CC [Irinotecan, irinotecan, reference compound] here?
Answer: 57%

Question: And the “Body Weight Change” value [7]?
Answer: −10.2%

Question: What about the body weight loss (single agent irinotecan group, 10 mg/kg Q4d) of the same molecule?
Answer: 10.2%

Question: With CC(=O)O[C@H]1C(=O)[C@@]2(C)[C@H]([C@H](OC(=O)c3ccccc3)[C@]3(O)C[C@H](OC(=O)[C@H](O)[C@@H](NC(=O)c4ccccc4)c4ccccc4)C(C)=C1C3(C)C)[C@]1(OC(C)=O)CO[C@@H]1C[C@@H]2O [Paclitaxel, paclitaxel, reference compound] as the molecule, how does the “TGI vs. Vehicle” value (CALU-6 xenograft tumors; paclitaxel 10 mg/kg ip Q4d) read?
Answer: 63%

Question: And the “TGI vs. Vehicle” value (OVCAR-8 xenograft tumors; paclitaxel 10 mg/kg ip Q4d)?
Answer: 83%
